Data from patent EP0126970A2, “Anxiolytic and anti-depressant thienopyridine derivatives” (BEECHAM GROUP PLC, priority 1983, dated 1984).
Where a name gives a salt, the structure may show the parent alone.

Assays:
benzodiazepine receptors [1] = assay: Radioligand binding, displacement of [3H]-Flunitrazepam; conditions: rat whole brain membranes, 0.5nM [3H] ligand; read-out: [^3H]-Flu Ki
Method: (§1) An interaction with benzodiazepine receptors in the central nervous system may be indicative of anxiolytic activity since inhibition of benzodiazepine binding correlates with the clinical efficacy of benzodiazepines. [^3H]-Flunitrazepam and [^3H]-βCCE selectively label benzodiazepine receptors and displacement of this specific binding in vitro by novel compounds in well-washed, frozen rat whole brain membranes is measured essentially as described by Martin and Candy (1978). At the fixed concentration of 0.5nM used, specific binding of both [^3H] ligands represents 80-90% of the total radioactivity bound. Non-specific binding is defined by 10µM clonazepam for each ligand. IC50 values are calculated from log [dose] against % inhibition curves; Ki values are determined using the Cheng-Prusoff equation.

benzodiazepine receptors [2] = assay: Radioligand binding, displacement of [3H]-βCCE; conditions: rat whole brain membranes, 0.5nM [3H] ligand
Method: as §1

| Compound | Ki (benzodiazepine receptors [1]) [nM] | Ki (benzodiazepine receptors [2]) [nM] |
| --- | --- | --- |
| O=c1c2c[nH]c3ccsc3c-2nn1-c1ccccn1 [Example E30] | 0.7 | – |
| CCOC(=O)c1cnc2ccsc2c1NNc1ccc(C)cc1 [Example E5, 7-(2-(4-Methylphenyl)hyarazino)-thieno[3,2-b]pyridine-6-carboxylic acid, ethyl ester, tnonohydrochloride] | 6500 | > 100000 |
| O=c1c2c[nH]c3cscc3c-2nn1-c1ccc(Cl)cc1 [Example E31, 2-(4-Chlorophenyl)-2,5-dihydro-3H-pyrazolo[3,4-d]thieno [3,4-b]pyridin-3-one] | 0.32 | – |
| CCOC(=O)c1c(C)nc2ccsc2c1NNc1ccc(Cl)cc1 [Example E11, 7-(2-(4-Chlorophenyl)hydrazino)-5-methyl-thieno[3,2-b] pyridine-6-carboxylic acid, ethyl estet, monohydrochloride] | 200 | 290 |
| O=c1c2c[nH]c3ccsc3c-2nn1-c1ccc(Cl)cc1 [Example E21, 2-(4-Chlorophenyl)-2,5-dihydro-3H-pyrazolo[3,4-d]thieno [3,2-b]pyridin-3-one] | 0.46 | 0.38 |
| Cc1[nH]c2ccsc2c2nn(-c3ccc(Cl)cc3)c(=O)c1-2 [Example E20, 2-(4-Chlorophenyl)-2,5-dihydro-4-methyl-3H-pyrazolo [3,4-d]thieno[3,2-b]pyridin-3-one] | 1000 | 2200 |
| COc1ccc(-n2nc3c4sccc4[nH]cc-3c2=O)cc1 [Example E24, 2,5-Dihydro-2-(4-methoxyphenl)-3H-pyrazolo[3,4-d]thieno [3,2-b]pyridin-3-one] | 0.23 | – |
| CCc1cc2c3nn(-c4ccc(Cl)cc4)c(=O)c-3c(C)[nH]c2s1 [Example E29, 2-(4-Chlorophenyl)-2,5-dihydro-7-ethyl-4-methyl-3H-pyrazolo[3,4-d]thieno[2,3-b]pyridin-3-one] | 568 | – |
| CCc1cc2c3nn(-c4ccc(Cl)cc4)c(=O)c-3c[nH]c2s1 [Example E28, 2-(4-Chlorophenyl)-2,5-dihydro-7-ethyl-3H-pyrazolo[3,4-d] thieno[2,3-b]pyridin-3-one] | 1.8 | – |
| Cc1[nH]c2ccsc2c2nn(-c3ccccc3)c(=O)c1-2 [Example E25, 2,5-Dihydro-4-methl-2-phenyl-3H-pyrazolo[3,4-d]thieno [3,2-b]pyridin-3-one] | 99 | 107 |
| Cc1ccc(-n2nc3c4sccc4[nH]cc-3c2=O)cc1 [Example E23, 2,5-Dihydro-2-(4-methylphenyl)-3H-pyrazolo[3,4-d]thieno [3,2-b]pyridin-3-one] | 0.82 | 0.31 |
| CCOC(=O)c1cnc2ccsc2c1NNc1ccccn1 [Example E6, 7-(2-(2-Pyridyl)hydrazino)-thieno[3,2-b]pyridihe-6-carboxylic acid, ethyl ester, monohydrochloride] | 350 | 360 |
| CCOC(=O)c1cnc2ccsc2c1NNc1ccc([N+](=O)[O-])cc1 [Example E3, 7-(2-(4-Nitrophenyl)hydrazino)-thieno[3,2-b]pyridine-6-carboxylic acid, ethyl ester, monohydrochloride] | 1000 | 1500 |
| CCOC(=O)c1cnc2ccsc2c1NNc1ccc(OC)cc1 [Example E8, 7-{2-(4-Methoxyphenyl)hydrazino)-thieno[3,2-b]pyridine-6-carboxylic acid, ethyl ester, monbhydrochloride] | 2400 | 3300 |
| CCOC(=O)c1c(C)nc2ccsc2c1NNc1ccccc1 [Example E10, 5-Methyl-7-(2-phenylhydrazino)-thieno[3,2-b]pyridine-6-carboxylic acid, ethyl ester, monohydrochloride] | 39000 | 23000 |
| CCOC(=O)c1cnc2ccsc2c1NNc1ccccc1 [Example E1, 7-(2-Phenylhydrazino)-thieno[3,2-b]pyridine-6-carboxylic acid, ethyl ester, monohydrochloride] | 7000 | 5000 |
| O=c1c2c[nH]c3ccsc3c-2nn1-c1cc(Cl)cc(Cl)c1 [Example E22, 2-(3,5-Dichlorophenyl)-2,5-dihy dro-3H-pyrazolo[3,9-d] thieno[3,2-b]pyrirlin-3-one] | 180 | 170 |
